In brackets after ≈: the same amount, converted by molar mass. Where two headings read alike, the source gives them in different places.
What was measured:
strain NA = assay: Checkerboard synergy testing of inhibitors with ethidium, strain NA; type: cell-based, B. subtilis; details: for FIC index: combination with ethidium, strain NA, 18 h, synergy = FIC index <0.5
Experimental: (§1) Synergy testing was performed with the strain NA by checkerboard titration in microtiter plates using two-fold serial broth microdilution (Eliopoulus and Moellering Jr., 1996). […] Wells were assessed visually for growth after an 18 h incubation period. The Fractional Inhibitory Concentration (FIC) was calculated for each inhibitor and ethidium combination. The following formulae were used to calculate the FIC index: [drawing 43]
Synergy was defined as an FIC index of <0.5.

NA strain = assay: Checkerboard synergy testing of inhibitors with ciprofloxacin, NA strain; type: cell-based, B. subtilis; details: combination with ciprofloxacin
Experimental: as §1
(§2) The inventors have quantitated the effects of the combination of the NorA inhibitors with ciprofloxacin, currently the most widely used fluoroquinolone and the second most prescribed antibiotic. Synergy testing was performed by checkerboard titration as described above for ethidium. […] All five compounds acted in a synergistic manner with ciprofloxacin, having FIC indices <0.5 (see Table 4). The inventors concluded that, similarly to their effects on the bacteriotoxicity of ethidium, each of the tested NorA inhibitors promotes the bacteriotoxicity of ciprofloxacin in a synergistic manner.

S. aureus strain SA1199B = assay: Checkerboard synergy testing of inhibitors with ciprofloxacin, S. aureus SA1199B; type: cell-based; details: combination with ciprofloxacin
Experimental: as §1, §2

[1] = tested on: wild type S. aureus SA1199; type: cell-based; details: INF inhibitors 5 μg/ml, reserpine 20 μg/ml; for Frequency of emergence of variants resistant to two fold the MIC of ciprofloxacin, Spontaneous: SA1199, ciprofloxacin 1 μg/ml, 48 h; for Frequency of emergence of variants resistant to two fold the MIC of ciprofloxacin, Mutagenized: SA1199 mutagenized with ethylmethane sulfonate; for Fold inhibition of emergence of resistance: ciprofloxacin resistance, SA1199
Experimental: The effect of the inhibitors on the rate of emergence of in vitro selected single-step ciprofloxacin resistant mutants of wild type S. aureus SA1199 (Kaatz et al., 1990) was determined.
Ciprofloxacin resistance in first step in vitro selected mutants of S. aureus is predominantly due to specific point mutations in the targets of this drug, topoisomerase IV and gyrase (Cambau and Gutman, 1993; Ferrero et al., 1994).

S. aureus (SA1199B) = assay: Minimal inhibitor concentration decreasing the ciprofloxacin MIC two fold, S. aureus SA1199B; type: cell-based; details: Staphylococcus aureus, read-out: Effectivity IC50* S. Aureus
S. pneumoniae (SPC2A) = assay: Minimal inhibitor concentration decreasing the ciprofloxacin MIC two fold, S. pneumoniae SPC2A; type: cell-based; details: Streptococcus pneumoniae, read-out: IC50 S. Pneumoniae
HeLa cell line = assay: Toxicity on HeLa cell line, Cell Titer 96 AQueous MTS-based assay; set-up: species or system human; details: for Selectivity Index (Toxicity HeLa/Effectivity): HeLa IC50 / S. aureus effectivity IC50; for IC50: Homo sapiens, 72 h, HeLa, read-out: Toxicity HeLa IC50
Experimental: Here the inventors proposed to test the toxicity of the identified lead compounds on several human cell lines. To date, the inventors have determined the IC50 of the lead compounds for the HeLa cell line, the results of which are presented in Table 6. The toxicity of the compounds at concentrations ranging from 0.7 μg/ml to 100 μμg/ml was determined in a 96 well plate by adding the compounds to cells 24 h after seeding at a density of 10^4 per well. After incubation with the compounds for 3 days the effect on cell growth was determined using the Cell Titer 96 AQueous MTS-based assay (Promega, Madison, Wis.).

NorA = molecular target: T1, NorA (Staphylococcus aureus, UniProt P0A0J7); assay: Screen of DiverSet library for reversing the resistance of B. subtilis strain NA to the NorA substrate ethidium bromide; type: cell-based; details: ranking or words
T1 construct: expressed in transfected cells; host or cells: Bacillus subtilis strain NA
T1 sequence (P0A0J7 whole entry): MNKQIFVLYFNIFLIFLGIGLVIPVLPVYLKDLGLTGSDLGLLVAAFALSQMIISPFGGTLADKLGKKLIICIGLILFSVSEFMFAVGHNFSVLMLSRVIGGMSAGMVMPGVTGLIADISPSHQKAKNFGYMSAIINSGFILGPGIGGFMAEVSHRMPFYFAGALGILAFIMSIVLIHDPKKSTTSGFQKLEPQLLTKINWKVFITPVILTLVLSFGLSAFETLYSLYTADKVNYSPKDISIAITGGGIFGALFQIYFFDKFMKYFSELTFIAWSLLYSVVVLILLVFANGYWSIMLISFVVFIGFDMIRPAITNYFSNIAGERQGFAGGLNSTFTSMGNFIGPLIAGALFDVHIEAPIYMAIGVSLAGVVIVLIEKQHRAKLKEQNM
Experimental: One library for the compounds identified in the present invention is DiverSet™ (ChemBridge Corp., Glenview, Ill.) The screening of this library consisting of 9,600 compounds, has been completed. The chemical library was screened for compounds effective, at concentrations of 20 μg/ml or less, in reversing the resistance of a specially created B. subtilis strain NA to the NorA substrate ethidium bromide. Although the present invention employed NorA as the multidrug transporter in the screening assays it will be understood by one of skill in the art that the compounds identified herein will likely have applicability to other multidrug transporters.
In an exemplary assay, in order to identify a candidate substance as an inhibitor of NorA, the B. subtilis strain NA may be used. […]
The DiverSet™ library of chemical compounds was screened for compounds effective, at concentrations of 20 μg/ml or less, in reversing the resistance of a specially created B. subtilis strain NA to the NorA substrate ethidium bromide. […] These three classes of compounds were evaluated using the activity data provided and the CoMFA fields generated to see if a 3D-QSAR relationship was present.

[2] = tested on: most Gram negative microorganisms; details: cited from earlier work
Streptococcus pneumoniae = details: cited from earlier work
[3] = tested on: most (≧90%) strains of the following microorganisms (Acinetobacter Iwoffi ... Yersinia enterocolitica); details: most (≧90%) strains of listed microorganisms; cited from earlier work
[4] = in vivo; cited from earlier work
[5] = tested on: most strains of certain other organisms (Gram negative aerobes); details: most strains of listed Gram negative aerobes; cited from earlier work
[6] = tested on: most strains of the following organisms (Staphylococcus aureus, Staphylococcus epidermidis, various Gram negative bacteria); details: most strains of listed organisms; cited from earlier work
[7] = tested on: Gram-negative and Gram-positive organisms; details: generally, except staphylococci; cited from earlier work
[8] = SPC2A, minimal concentration required to decrease the MIC for ciprofloxacin by two fold, N.A. = not active at 5 μg/ml

Structure (SMILES) | FIC index (strain NA) | FIC index NA (NA strain) | FIC index SA1199B (S. aureus strain SA1199B) | Frequency of emergence of variants resistant to two fold the MIC of ciprofloxacin, Spontaneous [1] | Frequency of emergence of variants resistant to two fold the MIC of ciprofloxacin, Mutagenized [1] | Fold inhibition of emergence of resistance [1] | IC50 (S. aureus (SA1199B)) | Selectivity Index (Toxicity HeLa/Effectivity) (HeLa cell line) | IC50 (HeLa cell line; 3 days, MTS) | further results
COc1ccccc1NC(=O)Nc1ccc2ccccc2c1 [INF 271] | 0.07 | 0.12 | 0.18 | <5 × 10^−11 | <2.5 × 10^−10 | >50 | 1.5 µg/mL (≈ 5.13 µM) | 12 | 18 µg/mL (≈ 61.6 µM) | IC50 (S. pneumoniae (SPC2A); [8]): 2.5 µg/mL (≈ 8.55 µM)
CC[n+]1c(-c2ccccc2)c2cc(N)ccc2c2ccc(N)cc21 [ethidium, ethidium bromide, reference compound] | – | – | – | – | – | – | – | – | – | MIC (strain NA; Bacillus subtilis, read-out: MIC for the strain NA): 40 µg/mL
O=[N+]([O-])c1ccc2[nH]c(-c3ccccc3)cc2c1 [INF 55] | 0.08 | 0.25 | 0.25 | <5 × 10^−11 | <2.5 × 10^−10 | >50 | 1.5 µg/mL (≈ 6.3 µM) | 27 | 40 µg/mL (≈ 168 µM) | IC50 (S. pneumoniae (SPC2A); [8]): 5 µg/mL (≈ 21 µM)
O=c1nc(SCc2ccccc2)[nH]c(O)c1C(c1ccccc1)c1ccccc1 [compound 41] | – | – | – | – | – | – | – | – | – | relative inhibitory activity in the initial screening (NorA): most active lead compound in this category
O=C(/C=C/c1ccccc1)Nc1cccc(/C=C/C(=O)c2ccccc2)c1 [INF 240] | 0.16 | 0.12 | 0.28 | <5 × 10^−11 | <2.5 × 10^−10 | >50 | 0.8 µg/mL (≈ 2.26 µM) | 2.5 | 2 µg/mL (≈ 5.66 µM) | –
O=C(O)c1cn(C2CC2)c2cc(N3CCNCC3)c(F)cc2c1=O [ciprofloxacin] | – | – | – | – | – | – | – | – | – | MIC90 [2]: ~0.1 µg/mL (≈ 0.302 µM); MIC90 (Streptococcus pneumoniae): 1 to 2 µg/mL; in vitro minimal inhibitory concentrations (MICs) [3]: ≤ 1 µg/mL; achievable tissue concentration [4]: 4 µg/mL
O=c1nc(SCc2ccccc2)[nH]c2c1[C@H](c1ccccc1)c1ccccc1O2 [INF 392] | 0.14 | 0.28 | 0.15 | 5 × 10^−11 | 1 × 10^−9 | 25 | 0.1 µg/mL (≈ 0.251 µM) | 450 | – | IC50 (S. pneumoniae (SPC2A)): 2.5 µg/mL (≈ 6.27 µM); IC50 (HeLa cell line): 45 µg/mL (≈ 113 µM)
CCn1cc(C(=O)O)c(=O)c2cc(F)c(N3CCNCC3)nc21 [enoxacin] | – | – | – | – | – | – | – | – | – | in vitro minimum inhibitory concentrations (MICs) [5]: ≤ 2.0 µg/mL
CC1(C)CC(=O)C2=C(C1)c1c(ccc3ccccc13)NC2c1cc(Br)ccc1O (stereo not shown) [INF 277] | 0.09 | 0.15 | 0.28 | <5 × 10^−11 | <2.5 × 10^−10 | >50 | 0.8 µg/mL (≈ 1.78 µM) | 6 | – | IC50 (S. pneumoniae (SPC2A)): 5 µg/mL (≈ 11.2 µM); IC50 (HeLa cell line): 5 µg/mL (≈ 11.2 µM)
CCn1cc(C(=O)O)c(=O)c2cc(F)c(N3CCNC(C)C3)c(F)c21 (stereo not shown) [lomefloxacin] | – | – | – | – | – | – | – | – | – | in vitro MICs [6]: ≤ 2 µg/mL; factor by which MBC exceeds MIC [7]: ≤ 2
